Test results taken from patent US20120003270A1, “6-SUBSTITUTED ISOFLAVONOID COMPOUNDS AND USES THEREOF” (priority 2008, published 2012).

Assays:
iNOS = assay: NO synthesis in LPS-stimulated RAW 264.7 (Griess); type: cell-based, mouse; details: LPS 50 ng/ml, 16 hrs
Experimental: The mouse macrophage cell line RAW 264.7 was cultured in DMEM supplemented with foetal calf serum (FCS), 2 mM glutamine and 50 U/ml penicillin/streptomycin. Cells were treated with either the compounds of the formula (I) (in 0.025% DMSO) or vehicle alone, and added one hour before 50 ng/ml LPS, which induces iNOS and the production of NO. After incubation for 16 hrs, culture media was collected. Nitrite concentration is a quantitative indicator of NO production and was determined by the Griess Reaction. Briefly, 100 μL of Griess reagent was added to 50 μL of each supernatant in duplicate. The absorbance at 550 nm was measured (Molecular Devices, SpectraMax 250 microplate spectrophotometer, CA, USA), and nitrite concentrations were determined against a standard curve of sodium nitrite.

HCAECs = assay: HCAEC cell viability; type: cell-based, human; details: 10 μM, 24 hr incubation
IFN-γ and IL-6 = assay: Splenocyte cytokine production (ELISA); type: cell-based, mouse; details: 10 μM, 3 day incubation, culture supernatant
Experimental: Male Skh-1:HR1 (hairless) mice, approximately six weeks old were killed by cervical dislocation. Single cell suspensions were made from the spleen and erythrocytes were lysed in buffer (0.14M NH4Cl, 17 mM Tris, pH 7.2). The remaining splenocytes were cultured in RPMI-1640 (Gibco) supplemented with 10% (v:v) FBS, 200 mM L-glutamine, penicillin/streptomycin and […] 2-mercaptoethanol. Splenocytes were added to quadruplicate wells containing either concanavalin A (ConA, Sigma-Aldrich—0.4 μg/well), LPS (Sigma-Aldrich—1 μg/well) or no mitogen, as well 10 μM of test compound in DMSO. Samples were analysed after a 3 day incubation at 37° C. in 5% CO2 in air. Methylthiazoletetrazolium (MTT) is bioreduced by viable cells into a coloured formazan product that is soluble in DMSO. Thus the quantity of formazan product is directly proportional to the number of living cells in culture, and can be measured using a spectrophotometer at 570 nm. MTT was added to each well, incubated for a further 4 hrs and then colour developed with 0.04N HCl in isopropanol. Culture supernatants were stored after collection at −80° C. and both T and B cells analysed by ELISA (BD Biosciences) for IFN-γ (a Th-1 cytokine) and for T cells alone, IL-6 (a Th-2 cytokine).

TNFα = TNFα synthesis in RAW 264.7 (ELISA); type: cell-based, mouse; details: LPS 50 ng/ml, 16 hrs
Experimental: The mouse macrophage cell line RAW 264.7 was cultured in DMEM supplemented with foetal calf serum (FCS), 2 mM glutamine and 50 U/ml penicillin/streptomycin. Cells were treated with either test compounds (in 0.025% DMSO) or vehicle alone, and added one hour before 50 ng/ml LPS. After incubation for 16 hrs, culture media was collected for PGE2 or TXB2 measurement by ELISA (Cayman Chemical), and TNFα measurement using an ELISA (Becton Dickinson).

[1] = Pharmacokinetics after a single oral dose in mice; type: in vivo, mouse; details: serum; for half-life / AUC: mouse; for half-life: oral, 25 mg/kg, unconjugated, one phase exponential decay, read-out: t1/2 (free); for AUC: oral 25 mg/kg in PEG 400/PBS 1:1; for AUCfree/AUCtotal / [max]free (μM, mean ± SD): oral 25 mg/kg
Experimental: The pharmacokinetic (PK) profiles of compounds (1) and (3) were examined following oral administration in PEG 400/PBS 1:1 at a dose of 25 mg/kg. For each experiment, three animals were allocated per time point (15 min, 30 min, 60 min, 90 min, 4 hr and 24 hr). Mice were killed using cervical dislocation and serum collected via cardiac puncture. Faeces and urine, where available, were also collected. Samples were stored at −80° C. and analysed by LC-MS in-house. The limit of detection was 20 ng/ml.
In Table 23 (and Table 24), “AUC” represents the area under the serum concentration versus time curve, expressed as μM*hour/L. This number assesses absorption and clearance in a relative way. The higher the number, the more compound has been absorbed and the longer it has remained in circulation. “AUCfree” refers to the area under the curve for unconjugated or free analogue, whereas “AUCtotal” refers to the area under the curve for the free and conjugated analogue combined.
“[max]” refers to the maximum concentration observed in serum. These measurements also give some understanding of how well a compound is absorbed.
The ratio of the AUCfree to the AUCtotal gives a relative measure of how much of the administered compound i.e. ‘free’ remains either in circulation compared to how much of the compound is conjugated.
“t1/2” is the half life, i.e. the time taken for the serum concentration to fall by half. The elimination of a drug is usually an exponential (logarithmic) process, so that a constant proportion is eliminated per unit time. […] The first refers to the t1/2 of the unconjugated analogue and the second the t1/2 of the total (free plus conjugated) analogue.

| Structure (SMILES) | NO (μM) (iNOS; 1 μM) | NO (iNOS; 10 μM) | Cell viability (HCAECs) | Effect on cytokine synthesis (INF-γ, IL-6) (IFN-γ and IL-6) | TNFα (TNFα; 1 μM) | TNFα (TNFα; 10 μM) | half-life [1] | AUC [1] | AUCfree/AUCtotal [1] | [max]free (μM, mean ± SD) [1] | NO (iNOS; 1 μM) |
| --- | --- | --- | --- | --- | --- | --- | --- | --- | --- | --- | --- |
| CN(C)Cc1cc2c(cc1O)OCC(c1ccc(O)cc1)=C2 [Compound (1)] | 17.27 ± 0^ μM | 5.29 ± 0.15 µM | cell viability was unaffected | concomitant reduction on the synthesis of INF-γ and IL-6 | 40002.31 ± 694.8 pg/mL | 41958.94 ± 837.04 pg/mL | 9 min | 0.127 µM·h | 33% | 0.13 ± 0.1 µM | – |
| O=C(O)C1CCCN1Cc1cc2c(cc1O)OCC(c1ccc(O)cc1)=C2 (centres unmarked) [Compound (3)] | – | 21.79 ± 0.82 µM | cell viability was unaffected | did decrease the cytokines produced by T cells in particular | 26677.52 ± 815.64 pg/mL | 45429.44 ± 1630.68 pg/mL | 28 min | 0.108 µM·h | 12% | 0.03 ± 0.01 µM | 31.33 ± 0.16 µM |
